Measurements reported in PubChem BioAssay AID1996.
In brackets after ≈: the same amount, converted by molar mass.

Conditions: buffer; pH 7.4; 200.0 µM

First: COC(=O)C1CCN(C(=O)c2ccc(OC)c(S(=O)(=O)N3CCCc4ccccc43)c2)CC1
Second: COc1ccc(NC(=S)N2CCC(Cc3ccccc3)CC2)cc1OC
The solubility kinetic of the first is higher: greater than 70.9 µg/mL for the first, 2.4 µg/mL (≈ 6.48 µM) for the second.

`Cc1ccc([N+](=O)[O-])c(NC2OC(CO)C(O)C2O)c1` (configuration not stated) and `Cc1ccc(C)c(NC(=S)N2CCCCC2CO)c1` (configuration not stated) cannot be ordered by solubility kinetic: greater than 42.6 µg/mL for the first, greater than 41.8 µg/mL for the second.

Going from `CCCCNC(=S)N1CCN(c2nc3ccccc3s2)CC1` to `COc1ccc(CC(=O)N2CCN(c3ccccc3)CC2)cc1`, the solubility kinetic rises from 0.9 µg/mL (≈ 2.69 µM) to 31.7 µg/mL (≈ 102 µM) (35-fold).

Going from `O=C(Cc1ccc(Cl)cc1)OCC(=O)c1ccc[nH]1` to `O=C(Cc1ccccc1)OCC(=O)c1cccc([N+](=O)[O-])c1`, the solubility kinetic rises from 27.3 µg/mL (≈ 98.3 µM) to greater than 44.9 µg/mL.

First: CC(=O)c1ccc(NC(=S)N2CCC(Cc3ccccc3)CC2)cc1
Second: CC(=O)c1ccc(NC(=O)C(C)Sc2ccccn2)cc1 (configuration not stated)
The solubility kinetic of the first is lower: 2.8 µg/mL (≈ 7.94 µM) for the first, greater than 45.1 µg/mL for the second.

`Cc1ccsc1C(=O)N[C@@H](C)c1nnc2ccccn12` and `Cc1cc(C)nc(NC(=O)c2cccs2)n1` cannot be ordered by solubility kinetic: greater than 43 µg/mL for the first, greater than 35 µg/mL for the second.

Going from `COc1ccc(NC(=O)COC(=O)CCC2CCCCC2)cc1` to `COc1ccc(OCCNC(=O)CCCO)cc1`, the solubility kinetic falls from 19.4 µg/mL (≈ 60.7 µM) to 4 µg/mL (≈ 15.8 µM) (4.8-fold).

Going from `CS(=O)(=O)Nc1ccc(C(=O)Nc2ccc3c(c2)OCO3)cc1` to `CN(C)c1cccc(C(=O)NCc2ccc3c(c2)OCO3)c1`, the solubility kinetic rises from 6.2 µg/mL (≈ 18.5 µM) to greater than 44.8 µg/mL.

First: O=C(CCN1C(=O)c2ccccc2S1(=O)=O)Nc1ccccc1F
Second: O=C1c2ccccc2C(=O)N1Cc1ccccc1F
The solubility kinetic of the first is higher: greater than 52.3 µg/mL for the first, 1.5 µg/mL (≈ 5.88 µM) for the second.

Compared with `COC(=O)c1ccc(/C=C/C(=O)OCC(=O)Nc2cc(C)on2)cc1`, `O=C(CNC(=O)c1ccco1)N/N=C/c1ccc(C(=O)O)cc1` is higher in solubility kinetic: 3 µg/mL (≈ 8.71 µM) for the first, greater than 47.3 µg/mL for the second.

Compared with `COc1ccc(Nc2ccc([N+](=O)[O-])cn2)cc1`, `COc1ccc(OCC(=O)Nc2nccs2)cc1` is 13-fold higher in solubility kinetic: 3 µg/mL (≈ 12.2 µM) for the first, 39.1 µg/mL (≈ 148 µM) for the second.

`Cc1ccc(NC(=O)c2sc(C)nc2C)c(C)c1` and `COc1ccc(NC(=O)c2cnc(SC)nc2C)c(OC)c1` cannot be ordered by solubility kinetic: greater than 39.1 µg/mL for the first, greater than 47.9 µg/mL for the second.

`Cc1nc(SCC(=O)NCc2ccc3c(c2)OCO3)nc(C)c1C` and `Cc1cc(C)n2c(SCC(=O)Nc3cccc(S(N)(=O)=O)c3)nnc2n1` cannot be ordered by solubility kinetic: greater than 51.8 µg/mL for the first, greater than 58.9 µg/mL for the second.

`NCCCn1cnc2ccccc21` and `CCn1c(/N=C/c2ccccc2O)nc2ccccc21` cannot be ordered by solubility kinetic: greater than 26.3 µg/mL for the first, 36.9 µg/mL (≈ 139 µM) for the second.

Compared with `O=C(Cc1cccs1)NCc1cccc(Br)c1`, `Cc1ccc2c(NC(=O)c3ccco3)cccc2n1` is lower in solubility kinetic: greater than 46.5 µg/mL for the first, 37.2 µg/mL (≈ 147 µM) for the second.

Going from `NC(=O)c1ccccc1NC(=O)N1CCOCC1` to `O=C(CN1CCCCC1)Nc1ccccc1C(=O)NC1CC1`, the solubility kinetic rises from 37.1 µg/mL (≈ 149 µM) to greater than 45.2 µg/mL.

Compared with `CCCCc1cc(C)c(S(=O)(=O)c2ccccc2C)c(=O)[nH]1`, `Cc1ccc(S(=O)(=O)NC(Cc2ccccc2)C(=O)O)cc1C` (configuration not stated) is higher in solubility kinetic: 3.8 µg/mL (≈ 11.9 µM) for the first, greater than 50 µg/mL for the second.

First: Clc1ccc(-c2nc3ccccc3[nH]2)cn1
Second: COc1ccc(Cl)cc1C(=O)Nc1nc2ccccc2[nH]1
The solubility kinetic of the first is 26-fold higher: 31.8 µg/mL (≈ 138 µM) for the first, 1.2 µg/mL (≈ 3.98 µM) for the second.

`CCc1cccc(C)c1NC(=O)CN1C(=O)NC(C)(CCC(C)C)C1=O` (configuration not stated) and `CCC(Oc1ccc(C)cc1)C(=O)Nc1ccc2c(c1)n(C)c(=O)n2C` (configuration not stated) cannot be ordered by solubility kinetic: greater than 53.9 µg/mL for the first, greater than 53 µg/mL for the second.

Going from `Cc1c(C(=O)O)cc(-c2ccccc2)n1Cc1ccccc1` to `Cn1c(=O)c(C(=O)c2ccccc2)c(O)c2ccccc21`, the solubility kinetic falls from greater than 43.7 µg/mL to 38.8 µg/mL (≈ 139 µM).

Going from `Nc1cccc2cnccc12` to `Cc1ccc(/C=N/NC(=O)c2cccnc2)s1`, the solubility kinetic rises from 1.4 µg/mL (≈ 9.71 µM) to greater than 36.8 µg/mL.

Going from `C=CCNC(=S)N1CCN(c2ncc(C(F)(F)F)cc2Cl)CC1` to `O=C(c1ccco1)N1CCN(C2c3ccccc3-c3ccccc32)CC1`, the solubility kinetic falls from 35.7 µg/mL (≈ 97.9 µM) to 1 µg/mL (≈ 2.9 µM) (36-fold).

Going from `COc1ccccc1CCC(=O)Oc1ccc(C#N)cc1OC` to `COc1ccc2nc(SCC(=O)Nc3ccccc3OC)[nH]c2c1`, the solubility kinetic rises from 9.5 µg/mL (≈ 30.5 µM) to 39.6 µg/mL (≈ 115 µM) (4.2-fold).

First: CC1CC(C)(C)NC(=S)N1CCC(=O)NCc1ccc(F)cc1 (configuration not stated)
Second: Cc1ccc(NC(=S)NCc2ccc(F)cc2)c(C)c1
The solubility kinetic of the first is higher: greater than 50.6 µg/mL for the first, 36.2 µg/mL (≈ 126 µM) for the second.

`Cc1nc(NC(=O)c2ccco2)sc1C(=O)O` and `COC(=O)c1ccccc1Oc1ccc(NC(=O)c2ccco2)cc1` cannot be ordered by solubility kinetic: greater than 37.8 µg/mL for the first, 49.6 µg/mL (≈ 147 µM) for the second.

`COC(=O)CSc1nc(N)c(C#N)c(-c2ccc(O)cc2)c1C#N` and `Cc1ccc(-n2c(C)c([N+](=O)[O-])c3ccc(O)cc32)cc1` are within 1.5-fold of each other in solubility kinetic: 0.6 µg/mL (≈ 1.76 µM) for the first, 0.4 µg/mL (≈ 1.42 µM) for the second.

Going from `O=C(O)CNC(=O)/C=C/c1c(Cl)cccc1Cl` to `Cc1cccc(CC(=O)NCCN2CCCCC2)c1`, the solubility kinetic falls from greater than 41.1 µg/mL to 32.5 µg/mL (≈ 125 µM).

First: Cc1ccc(NC(=O)C(=O)NCCCN2CCCC2=O)c(C)c1
Second: Cc1cc(=O)[nH]c(SCC(=O)NCCC2=CCCCC2)n1
The solubility kinetic of the first is higher: greater than 47.6 µg/mL for the first, 38.8 µg/mL (≈ 126 µM) for the second.

`O=C(O)CCCCCNC(=O)c1ccc(C(=O)NCCCCCC(=O)O)cc1` and `Cc1ccc(C(=O)NCCNC(=O)COc2ccc(C)c(C)c2)cn1` are within 1.5-fold of each other in solubility kinetic: 53.9 µg/mL (≈ 137 µM) for the first, 49.2 µg/mL (≈ 144 µM) for the second.

`NC(=O)N1c2ccccc2C=Cc2ccccc21` and `O=C(COc1ccccc1F)N1CCCc2ccccc21` cannot be ordered by solubility kinetic: greater than 35.4 µg/mL for the first, greater than 42.8 µg/mL for the second.

Going from `Cl.Clc1ccc2[nH]c3c(c2c1)CCNC3` to `O=C(Nc1cccc(Cl)c1)OC1CCCCc2cccnc21` (configuration not stated), the solubility kinetic falls from 32.4 µg/mL to 9.3 µg/mL (≈ 29.4 µM) (3.5-fold).

Going from `O=C(COc1ccc2cc(Br)ccc2c1Br)N1CCOCC1` to `COC(=O)c1nc2ccc(N3CCOCC3)cc2c(C)c1C(=O)OC`, the solubility kinetic rises from 13.9 µg/mL (≈ 32.4 µM) to greater than 51.7 µg/mL.

`C=CCc1ccccc1OCC(O)CNC1CCCC1.Cl` (configuration not stated) and `C=CCOc1cccc(/C=C/c2nc3ccccc3c(=O)[nH]2)c1` cannot be ordered by solubility kinetic: greater than 46.8 µg/mL for the first, greater than 45.7 µg/mL for the second.

Compared with `CC(C)c1ccc(OCC(=O)NC(C)c2ccccc2)cc1` (configuration not stated), `CC(=O)Nc1ccc(Nc2cc(C)nc3ccccc23)cc1` is 2.4-fold higher in solubility kinetic: 16.5 µg/mL (≈ 55.5 µM) for the first, 40.2 µg/mL (≈ 138 µM) for the second.

`CC1(N(O)/C=C2\C=CC=CC2=O)CCCCC1=O` (configuration not stated) and `O=C(NCc1ccco1)C(=O)N1CCCC1` cannot be ordered by solubility kinetic: greater than 37.1 µg/mL for the first, greater than 33.3 µg/mL for the second.

`CN1CCN(S(=O)(=O)c2ccc3c(c2)oc(=O)n3C)CC1` and `CCN1CCN(CCc2nc3cc([N+](=O)[O-])ccc3n2C)CC1` cannot be ordered by solubility kinetic: greater than 46.7 µg/mL for the first, greater than 47.6 µg/mL for the second.

`O=C(NN1C(=O)C2C3C=CC(C3)C2C1=O)C(O)c1ccccc1` (configuration not stated) and `CC(C)[C@H](NS(=O)(=O)c1ccccc1)C(=O)Nc1ccccc1N1CCOCC1` cannot be ordered by solubility kinetic: greater than 46.8 µg/mL for the first, 52.1 µg/mL (≈ 125 µM) for the second.

Going from `COc1ccc(-c2csc(C)n2)cc1Br` to `Cc1ccc(OCCc2csc(N)n2)cc1`, the solubility kinetic rises from 14.8 µg/mL (≈ 52.1 µM) to 34.8 µg/mL (≈ 149 µM) (2.4-fold).

Going from `N/C(=N\OC(=O)c1ccccc1Cl)c1cccc([N+](=O)[O-])c1` to `NC(=O)C1CCN(C(=O)c2cc(-c3ccc(Cl)s3)nc3ccccc23)CC1`, the solubility kinetic rises from 1.7 µg/mL (≈ 5.32 µM) to 9.4 µg/mL (≈ 23.5 µM) (5.5-fold).

`CCSC1=NN2CCS(=O)(=O)N=C2S1` and `CCOC(=O)Cc1csc(NC(=O)c2c(C)noc2C)n1` cannot be ordered by solubility kinetic: greater than 37.7 µg/mL for the first, greater than 46.4 µg/mL for the second.

Compared with `FC(F)(F)c1ccccc1-n1c(-c2cnccn2)n[nH]c1=S`, `CCCNc1nc(Cl)nc(NCc2cccnc2)n1` is lower in solubility kinetic: greater than 48.5 µg/mL for the first, 33.5 µg/mL (≈ 120 µM) for the second.

`O=C(NCCN1CCOCC1)c1cc([N+](=O)[O-])cc([N+](=O)[O-])c1` and `O=C(O)c1ccc(NC(=O)C2C3CCC(O3)C2C(=O)O)cc1` (configuration not stated) cannot be ordered by solubility kinetic: greater than 48.6 µg/mL for the first, greater than 45.8 µg/mL for the second.

Going from `Cc1cc(C)cc(NC2=C(N)C(=O)c3ccccc3C2=O)c1` to `COc1ccc(NS(=O)(=O)c2c(C)cc(C)cc2C)cn1`, the solubility kinetic rises from 0.4 µg/mL (≈ 1.37 µM) to 5.3 µg/mL (≈ 17.3 µM) (13-fold).

Compound `CCCC(=O)Nc1sc(Cc2ccccc2)c(C)c1C(N)=O` has a solubility kinetic of 6.9 µg/mL (≈ 21.8 µM).
